Results taken from patent US20130218474A1, “Benchmarks for Normal Cell Identification” (priority 2012, published 2013).
Several values for one entry are separate records, joined by “and”; a condition that tells them apart may be missing. Equal values may be shown once. Entries after “also recorded” stand apart in the source; their conditions may differ. Read-outs that look alike come from different tables or passages of the source.

Columns and labels:
[1] = cited from earlier work
xenograft model = settings: low doses; cited from earlier work
[2] = tested on: PMA induced pERK in lymphocytes from PBMCs; test: PMA induced pERK in lymphocytes from PBMCs; assay type: cell-based
[3] = tested on: pERK in blood lymphocytes; settings: ~1000 ng/ml plasma conc.; cited from earlier work
[4] = tested on: AML patient sample #1910-017 cells; test: SCNP arm #1: modulated signaling in AML patient cells with and without kinase inhibitors; assay type: cell-based, human; settings: subject #1910-017
Experimental: (§1) Peripheral blood or bone marrow samples from AML patient were collected (n=9), which had been previously ficoll separated and cryopreserved. Patient characteristics are shown Table 7. One cryovial per patient was used. Samples were thawed and centrifuged over ficoll to remove dead cells and debris.
Arm #1 assessed basal and modulated signaling in the JAK/STAT, PI3K/mTor, and MEK/ERK pathways in the presence and absence of specific kinase inhibitors. Kinase inhibitors were added […]before the addition of the signaling stimulus. Signaling was induced by individual addition of stem cell factor, Flt3 ligand, G-CSF, IL-3, or thrombopoietin (TPO) for a short period of time (5-15 min). Cells were then fixed, permeabilized, and stained with a cocktail of cell surface and phospho-specific antibodies to measure signaling in multiple cell types. Signaling data is calculated in each cell type using a fold-change metric comparing each condition to its basal state: example: (stimulated^+/−inhibitor)/(unstimulated). Also, cells with an apoptotic phenotype were excluded from the signaling analysis by gating.

[5] = tested on: AML patient myeloid cells; test: SCNP arm #2: cytotoxic and cytostatic impact of drugs on AML patient cells; assay type: cell-based, human; settings: 48 hours drug culture
Excerpt: as §1
Arm #2 asessed the cytotoxic and cytostatic impact of various drugs as single agents and in combinations (including the specific kinase inhibitors tested in arm #1). Here the cells from each donor were cultured in the presence of TPO, IL-3, SCF, and FLT3L for 2 days to drive proliferation. After 2 days the cells were then distributed into wells containing various drugs, wherein the cells were cultured for 48 hours. The cultures were fixed, permeabilized, and stained with a cocktail of antibodies to measure complete cell death, apoptosis, S/G2 phase, M-Phase, and DNA damage. These readouts were also obstained from samples cultured separately with individual growth factors (no drugs) for four days.

[6] = tested on: pAKT and pS6 on H460 cell line; settings: cited from earlier work
[7] = tested on: tumour xenografts that have abnormal PI3K signalling; settings: loss of PTEN function or gain-of-function PI3K mutations; cited from earlier work
proteome activity = settings: 10 nM; cited from earlier work
AML cell lines = settings: read-out: IC90, proliferation of AML cell lines; cited from earlier work
[8] = tested on: anti-IgM_pAKT induced PBMC; test: anti-IgM induced pAKT in PBMC; assay type: cell-based
[9] = tested on: pAKT (same cells, same stim); test: pAKT inhibition in PBMCs (monos), GM-CSF; assay type: cell-based
[10] = tested on: Ba/F3-wt (+IL-3, proliferation) JAK2 wt; settings: read-out: Reported activity Ba/F3-wt (+IL-3, proliferation) JAK2 wt; cited from earlier work
mantle cell line (Jeko) = settings: 10 nM in vitro; cited from earlier work
p-S6 = settings: 10 nM in vitro; cited from earlier work
A2780 = settings: cited from earlier work
MDA-MB-361 = settings: read-out: inhibition of MDA-MB-361 cancer cell proliferation (IC50); cited from earlier work
[11] = tested on: pS6 in paired tumor biopsies; settings: patients treated at 80 mg and higher; cited from earlier work
[12] = tested on: pAKT levels assayed in PRP; settings: patients treated at 80 mg and higher; cited from earlier work
[13] = tested on: tumor FDG avidity, CA-125; settings: cited from earlier work
PC3 = settings: read-out: inhibition of PC3 cancer cell proliferation (IC50); cited from earlier work
GM-CSF_pSTAT5 [14] = test: cells; settings: read-out: GM-CSF_pSTAT5 inhibition IC50
GM-CSF_pSTAT5 [15] = settings: 1000 nM
[16] = Plasma pharmacokinetics in patients or volunteers (values collected in Table 1); settings: human, in vivo
[17] = human, in vivo; cited from earlier work
[18] = tested on: normal PBMC (lymphoid and myeloid cells); test: DNA damage response kinetics in normal PBMC; assay type: cell-based, human

CC(C)(C)c1cc(NC(=O)Nc2ccc(-c3cn4c(n3)sc3cc(OCCN5CCOCC5)ccc34)cc2)no1 [AC220]
half-life ([1]; human, in vivo): AC220 half-life can be 2.5 days, exhibiting minimal peak and | effect in xenograft model (xenograft model): tumor regression in a xenograft model at low doses. Ref:

O=C(c1cc(Cc2n[nH]c(=O)c3ccccc23)ccc1F)N1CCN(C(=O)C2CC2)CC1 [AZD2281, Olaparib]
Cmax (maximum plasma concentration) ([1]; at MTD): ~6000 ng/mL | Cmax ([1]; read-out: Cmax (maximum plasma concentration), at MTD): 13.8 µM

Cn1cnc2c(F)c(Nc3ccc(Br)cc3Cl)c(C(=O)NOCCO)cc21 [AZD6244]
inhibition at 1 µM ([2]; 1 μM in vitro, read-out: PMA induced pERK inhibited): 85 to 95% | IC50 ([2]; lymphocytes from PBMCs): ~0.1 µM | pERK inhibition (PD effect) [3]: 11u-post dose. PD effects of ~80% pERK inhibition can be seen at | inhibition of SCF induced p-AKT [4]: no inhibition | inhibition of SCF induced p-S6 [4]: partial inhibition | inhibition of SCF-PERK [4]: complete inhibition

Nc1ccn([C@@H]2O[C@H](CO)[C@@H](O)[C@@H]2O)c(=O)n1 [AraC, Cytarabine]
drug induced apoptosis / cell death of patient myeloid cells [5]: resisted apoptosis

Nc1ncn([C@@H]2O[C@H](CO)[C@@H](O)[C@H]2O)c(=O)n1 [Azacitidine]
Cmax ([1]; human, in vivo): 1.42 to 4.72 µM

Cn1c(=O)n(-c2ccc(C(C)(C)C#N)cc2)c2c3cc(-c4cnc5ccccc5c4)ccc3ncc21 [BEZ235]
inhibition of SCF induced p-AKT [4]: complete inhibition | inhibition of SCF induced p-S6 [4]: partial inhibition | IC50 ([6]; read-out: pAKT 1050): 0.01 µM | IC50 ([6]; read-out: pS6 1050): 0.05 µM | activity against tumour xenografts [7]: show that BEZ235 has strong anti-proliferative activity against

CC(C)C[C@H](NC(=O)[C@H](Cc1ccccc1)NC(=O)c1cnccn1)B(O)O [Bortezomib]
effect on proteome activity (proteome activity): blocks proteome activity [BLOOD, 16 DECEMBER 2010 | IC90 (AML cell lines): 0.01 to 0.05 µM | Cmax (prescribing info) ([1]; human, in vivo): 112 ng/m1 | Cmax ([1]; read-out: Cmax (prescribing info), human, in vivo): 0.291 µM | drug induced apoptosis / cell death of patient myeloid cells [5]: effective at inducing apoptosis; also recorded: induced considerable levels of cell death and cytostasis

CC[C@H](Nc1ncnc2[nH]cnc12)c1nc2cccc(F)c2c(=O)n1-c1ccccc1 [CAL-101]
block of anti-IgM induced pAKT ([8]; 40 nM): blocked ~90%. Ref: Herman, Sarah EM et al. Blood. Jun. 3, | IC50 ([8]; anti-IgM induced pAKT, PBMC, read-out: Nodality IC50): ~0.01 µM | mean volume of distribution ([1]; human, in vivo): 57.7 L | steady-state trough plasma concentrations above the EC50 for the in vitro whole-blood assay ([1]; human, in vivo): concentrations that are >10-fold above the EC50 for the in vitro | t1/2 ([1]; human, in vivo): ~8 h

C[C@@H]1CCN(C(=O)CC#N)C[C@@H]1N(C)c1ncnc2[nH]ccc12 [CP690550]
effect on high basal level of p-STAT5 signaling [4]: inhibited | inhibition of IL-3 signaling [4]: complete inhibition | inhibition of TPO signaling [4]: partial inhibition | T½ ([1]; human, in vivo, 30 mg): 2.6 h

N#CCNC(=O)c1ccc(-c2ccnc(Nc3ccc(N4CCOCC4)cc3)n2)cc1 [CYT387]
IC50 [9]: 0.129 µM | IC90 [9]: ~1 µM | IC50 [10]: 1.42 µM

Nc1ncn([C@H]2C[C@H](O)[C@@H](CO)O2)c(=O)n1 [Decitabine]
Cmax ([1]; 15 mg/m2 IV over 3 hrs, every 8 hrs, for 3 days): 0.3 to 1.6 µM

CO[C@H]1C[C@@H]2CC[C@@H](C)[C@@](O)(O2)C(=O)C(=O)N2CCCC[C@H]2C(=O)O[C@H]([C@H](C)C[C@@H]2CC[C@@H](OCCO)[C@H](OC)C2)CC(=O)[C@H](C)/C=C(\C)[C@@H](O)[C@@H](OC)C(=O)[C@H](C)C[C@H](C)/C=C/C=C/C=C/1C [Everolimus]
effect on proliferation of mantle cell line (Jeko) (mantle cell line (Jeko)): inhibit proliferation | Cmax ([1]; 10 mg/d): 61 ng/m1 and 63 nM | trough ([1]; 10 mg/d): 17 ng/m1 and 17.7 nM | trough ([1]; 50 mg/wk): lng/ml (~1 nM). [J Clin Oncol 26: 1603-1610. 2008]. A 10 nM dose | inhibition of p-S6 (p-S6): inhibit p-S6 completely

CS(=O)(=O)N1CCN(Cc2cc3nc(-c4cccc5[nH]ncc45)nc(N4CCOCC4)c3s2)CC1 [GDC-0941]
IC50 (A2780): 0.14 µM | IC50 (MDA-MB-361): 0.72 µM | decreases in pS6 staining in paired tumor biopsies [11]: Decreases in pS6 staining of >50% can occur in paired tumor | inhibition of SCF induced p-AKT [4]: partial inhibition | inhibition of SCF induced p-S6 [4]: partial inhibition | decreases in pAKT levels assayed in PRP [12]: biopsies in addition to decreases of >90% in pAKT levels assayed | mean Cmax and AUCinf with dose ([1]; human, in vivo): display dose-proportional increases in mean Cmax and AUCinf. | reductions in mean SUVmax (tumor FDG avidity on PET scan) ([13]; 3 patients treated at ≧100 mg): GDC-0941 with reductions (≧30% in mean SUVmax) in tumor | decrease in CA-125 ([13]; ovarian cancer patient): FDG avidity observed on PET scan and an ~80% decrease in CA- | IC50 (PC3): 0.28 µM

N#CC[C@H](C1CCCC1)n1cc(-c2ncnc3[nH]ccc23)cn1 [INCB018424]
IC50 (GM-CSF_pSTAT5 [14]): 0.215 µM | Cmax ([1]; 100 mg 24 h): 4.78 µM | inhibition of GM-CSF_pSTAT5 (GM-CSF_pSTAT5 [15]): Jan 2011.) 1000 nM can completely inhibit GM-CSF_pSTAT5

Cc1ccc(NC(=O)c2ccc(CN3CCN(C)CC3)cc2)cc1Nc1nccc(-c2cccnc2)n1 [Imatinib]
assumed trough [16]: 1000 ng/ml and 2 μM

CCNC(=O)c1noc(-c2cc(C(C)C)c(O)cc2O)c1-c1ccc(CN2CCOCC2)cc1 [NVP-AUY922]
drug induced apoptosis / cell death of patient myeloid cells [5]: effective at inducing apoptosis

Cn1nnc2c(C(N)=O)ncn2c1=O [Temozolomide]
Adult MTD [17]: glioblastoma multiforme patients. Adult MTD = 200 ng/m2/day | T½ ([1]; human, in vivo): 1.67 h | plasma concentration (Cmax) corresponding to 200 ng/m2/day ([1]; human, in vivo): 9300 ng/mL | Cmax ([1]; read-out: plasma concentration (Cmax) corresponding to 200 ng/m2/day, human, in vivo): 47.9 µM

gemtuzumab ozogamicin [Mylotarg]
kinetics in Myeloid versus Lymphoid cells [18]: faster kinetics in Myeloid compared to Lymphoid cells | time by which induction of p-ATM, p-Chk2 is seen ([18]; Myeloid cells): ≤ 2 h
